The assay addresses T1, MALT1 (Homo sapiens, UniProt Q9UDY8).
T1 sequence (Q9UDY8 1-824): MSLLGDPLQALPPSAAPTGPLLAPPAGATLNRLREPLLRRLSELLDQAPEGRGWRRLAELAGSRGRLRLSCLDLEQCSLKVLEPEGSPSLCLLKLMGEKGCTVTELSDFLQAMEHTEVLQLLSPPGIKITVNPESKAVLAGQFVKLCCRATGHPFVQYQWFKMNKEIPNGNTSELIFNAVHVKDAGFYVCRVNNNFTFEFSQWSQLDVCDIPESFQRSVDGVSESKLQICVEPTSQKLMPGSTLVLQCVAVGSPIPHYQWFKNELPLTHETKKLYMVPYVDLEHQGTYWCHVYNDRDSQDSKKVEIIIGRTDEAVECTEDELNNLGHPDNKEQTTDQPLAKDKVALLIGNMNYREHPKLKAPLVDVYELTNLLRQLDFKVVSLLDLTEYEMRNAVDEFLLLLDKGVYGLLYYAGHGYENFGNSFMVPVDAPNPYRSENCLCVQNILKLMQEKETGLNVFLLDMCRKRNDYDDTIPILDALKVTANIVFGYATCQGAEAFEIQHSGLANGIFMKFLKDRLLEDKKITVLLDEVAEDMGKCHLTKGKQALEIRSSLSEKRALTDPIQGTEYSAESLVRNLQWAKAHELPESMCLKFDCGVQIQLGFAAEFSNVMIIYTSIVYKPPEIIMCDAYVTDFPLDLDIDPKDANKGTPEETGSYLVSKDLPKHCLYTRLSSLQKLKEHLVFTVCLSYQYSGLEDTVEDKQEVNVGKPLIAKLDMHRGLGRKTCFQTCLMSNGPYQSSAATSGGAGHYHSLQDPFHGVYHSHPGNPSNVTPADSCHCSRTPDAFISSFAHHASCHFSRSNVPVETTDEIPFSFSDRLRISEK
Briefly: MALT1 protease inhibition assay (AMC-labeled peptide, fluorescence 360/460). It counts as biochemical. Particulars: substrate Ac-LRSR-AMC, 15 min preincubation, 90 min at 25° C. As to the method:
Test compounds of the present invention (in 100% DMSO) were spotted into a 384-well dilution plate and serially diluted to the required concentrations with DMSO. Then, 0.2 μL of the test compounds were transferred into a new 384-well reaction plate by Echo following centrifugation. The MALT enzyme and its substrate, AMC-labeled peptide, were prepared in 1× protease buffer to yield 2× enzyme solution and 2× peptide solution. Subsequently, 10 μL of 2× enzyme solution was added into the 384-well reaction plate, incubating with the test compounds for 15 minutes at 25° C. After that, 10 μL of 2× peptide solution was added into the plate, continuing to incubate for 90 minutes at 25° C. The plate was then placed on an Envision multifunctional microplate reader to collect raw data, which would be converted into inhibition rate:
Inhibition rate %=(max−sample)/(max−min)*100%. • “max” values were measured using the reaction with enzyme but no compound treated, while “min” values were generated from control wells containing assay buffer without enzyme.
Curve fitting was done with Graphpad Prism software to determine the IC50 values. The specific experimental operations are as follows:
58.82 g Na Citrate·2H2O powder was added into 140 mL ddH2O and mixed in a 37° C. water bath. Once there were no visible particles, the remaining solutions were added successively with continuous stirring for 10 minutes. The final volume was adjusted to 200 mL. The buffer was stored at room temperature. DTT was added before use.
• 1) All test compounds were diluted from 10 mM stock solution into 1 mM in a 384 well dilution plate (labcyte, PP-0200); • 2) Ten various concentrations of the diluted compound solution above were obtained by serial dilution at an equal ratio of 1:3; • 3) 0.2 μL DMSO was transferred to two empty wells of the 384 reaction plate as blank controls without compound and enzyme respectively; • 4) 0.2 μL of the test compound at different concentrations was also transferred into the 384 reaction plate by Echo, with two duplicate wells for each concentration, then the plate was centrifuged at 1000 rpm for 1 min.
• 1) The MALT1 protease and AMC-labeled peptide was prepared in 1× protease buffer to obtain 2× enzyme solution and 2× peptide solution. 10 μL of 2× enzyme solution was added into the 384-well reaction plate. The plate was centrifuged at 1000 rpm for 1 min and incubated for 15 min at 25° C. • 2) 10 μL of 2× peptide solution was then transferred to the 384 reaction plate, and the plate was centrifuged at 1000 rpm for 1 min and incubate for 90 min at 25° C.

Consider 22 compounds from US20240336594A1, “SIX-MEMBERED ARYL OR HETEROARYL AMIDES, AND COMPOSITION AND USE THEREOF” (BETTA PHARMACEUTICALS CO., LTD, priority 2021, published 2024).

Regarding `Nc1cc(F)ccc1-c1cc(Cl)c(C(=O)Nc2cnc(C(=O)NCCOC(F)(F)F)c(Cl)c2)cc1F` [Example A459, 5-(2′-amino-5-chloro-2,4′-difluoro-[1,1′-biphenyl]-4-carboxamido)-3-chloro-N-(2-(trifluoromethoxy)ethyl)picolinamide], the IC50 was in the range of 100 to 500 nM.

Consider `Nc1cc(F)ccc1-c1cc(Cl)c(C(=O)Nc2cnc(-n3nccn3)c(Cl)c2)cc1N` [Example A460, 2,2′-diamino-5-chloro-N-(5-chloro-6-(2H-1,2,3-triazol-2-yl)pyridin-3-yl)-4′-fluoro-[1,1′-biphenyl]-4-carboxamide], for which the IC50 was 10 to 100 nM.

`Nc1cc(F)ccc1-c1cc(Cl)c(C(=O)Nc2cnc(C(=O)NCCF)c(Cl)c2)cc1F` [Example A461, 5-(2′-amino-5-chloro-2,4′-difluoro-[1,1′-biphenyl]-4-carboxamido)-3-chloro-N-(2-fluoroethyl)picolinamide] registered a 50% inhibitory concentration (IC50) of 10 to 100 nM.

`Cc1nnc(CNC(=O)c2ncc(NC(=O)c3cc(F)c(-c4ccc(F)cc4N)cc3Cl)cc2Cl)o1` [Example A462, 5-(2′-amino-5-chloro-2,4′-difluoro-[1,1′-biphenyl]-4-carboxamido)-3-chloro-N-((5-methyl-1,3,4-oxadiazol-2-yl)methyl)picolinamide] registered an IC50 of 10 to 100 nM.

For `Nc1cc(F)ccc1-c1cc(Cl)c(C(=O)Nc2cnc(C(=O)NCc3nc[nH]n3)c(Cl)c2)cc1F` [Example A463, N-((1H-1,2,4-triazol-3-yl)methyl)-5-(2′-amino-5-chloro-2,4′-difluoro-[1,1′-biphenyl]-4-carboxamido)-3-chloropicolinamide], the IC50 was 10 to 100 nM.

Take `CCSCCNC(=O)c1ncc(NC(=O)c2cc(F)c(-c3ccc(F)cc3N)cc2Cl)cc1Cl` [Example A464, 5-(2′-amino-5-chloro-2,4′-difluoro-[1,1′-biphenyl]-4-carboxamido)-3-chloro-N-(2-(ethylthio)ethyl) picolinamide]: the concentration for half-maximal inhibition (IC50) is 10 to 100 nM.

With `NC(=O)CNC(=O)c1ncc(NC(=O)c2cc(F)c(-c3ccc(F)cc3N)cc2Cl)cc1Cl` [Example A465, N-(2-amino-2-oxoethyl)-5-(2′-amino-5-chloro-2,4′-difluoro-[1,1′-biphenyl]-4-carboxamido)-3-chloropicolinamide], the half-inhibitory concentration (IC50) was in the range of 10 to 100 nM.

`N#CC1(CNC(=O)c2ncc(NC(=O)c3cc(F)c(-c4ccc(F)cc4N)cc3Cl)cc2Cl)CC1` [Example A466, 5-(2′-amino-5-chloro-2,4′-difluoro-[1,1′-biphenyl]-4-carboxamido)-3-chloro-N-((1-cyanocyclopropyl)methyl)picolinamide] displayed a half-maximal inhibitory concentration (IC50) of 10 to 100 nM.

`Nc1cc(F)ccc1-c1cc(Cl)c(C(=O)Nc2cnc(C(=O)NCC(F)(F)C(F)(F)F)c(Cl)c2)cc1F` [Example A467, 5-(2′-amino-5-chloro-2,4′-difluoro-[1,1′-biphenyl]-4-carboxamido)-3-chloro-N-(2,2,3,3,3-pentafluoropropyl) picolinamide] displayed a concentration for half-maximal inhibition (IC50) of 100 to 500 nM.

In turn, `Nc1cc(F)ccc1-c1cc(Cl)c(C(=O)Nc2cnc(C(=O)NCC3(C(F)(F)F)CC3)c(Cl)c2)cc1F` [Example A468, 5-(2′-amino-5-chloro-2,4′-difluoro-[1,1′-biphenyl]-4-carboxamido)-3-chloro-N-((1-(trifluoromethyl)cyclopropyl)methyl) picolinamide] returned an IC50 of 100 to 500 nM.

`CS(=O)(=O)CCNC(=O)c1ncc(NC(=O)c2cc(F)c(-c3ccc(F)cc3N)cc2Cl)cc1Cl` [Example A469, 5-(2′-amino-5-chloro-2,4′-difluoro-[1,1′-biphenyl]-4-carboxamido)-3-chloro-N-(2-(methylsulfonyl)ethyl) picolinamide]: the 50% inhibitory concentration (IC50) lay in the range of 10 to 100 nM.

`C#Cc1cncc(N)c1-c1cc(Cl)c(C(=O)Nc2cnc(C(=O)NCC(F)F)c(Cl)c2)cc1F` [Example A471, 5-(4-(3-amino-5-ethynylpyridin-4-yl)-2-chloro-5-fluorobenzamido)-3-chloro-N-(2,2-difluoroethyl)picolinamide] gave a half-maximal inhibitory concentration (IC50) of no more than 10 nM.

Compound `C#Cc1cncc(N)c1-c1cc(Cl)c(C(=O)Nc2cnc(C(=O)NCCF)c(Cl)c2)cc1F` [Example A472, 5-(4-(3-amino-5-ethynylpyridin-4-yl)-2-chloro-5-fluorobenzamido)-3-chloro-N-(2-fluoroethyl)picolinamide] registered a 50% inhibitory concentration (IC50) of no more than 10 nM.

In the case of `Nc1cncc(C2CC2)c1-c1cc(Cl)c(C(=O)Nc2cnc(-n3nccn3)c(C(F)(F)F)c2)cc1F` [Example A475, N-(6-(2H-1,2,3-triazol-2-yl)-5-(trifluoromethyl)pyridin-3-yl)-4-(3-amino-5-cyclopropylpyridin-4-yl)-2-chloro-5-fluorobenzamide], the IC50 is no more than 10 nM.

Take `C#Cc1cncc(N)c1-c1cc(Cl)c(C(=O)Nc2cnc(C(=O)NCC(C)(C)C)c(Cl)c2)cc1F` [Example A478, 5-(4-(3-amino-5-ethynylpyridin-4-yl)-2-chloro-5-fluorobenzamido)-3-chloro-N-neopentylpicolinamide]: the concentration for half-maximal inhibition (IC50) is no more than 10 nM.

The compound `C#Cc1cncc(N)c1-c1cc(Cl)c(C(=O)Nc2cnc(C(=O)NCC)c(Cl)c2)cc1F` [Example A479, 5-(4-(3-amino-5-ethynylpyridin-4-yl)-2-chloro-5-fluorobenzamido)-3-chloro-N-ethylpicolinamide] displayed an IC50 of no more than 10 nM.

For `C#Cc1cnc(F)c(N)c1-c1cc(Cl)c(C(=O)Nc2cnc(-n3nccn3)c(Cl)c2)cc1F` [Example A485, 4-(3-amino-5-ethynyl-2-fluoropyridin-4-yl)-2-chloro-N-(5-chloro-6-(2H-1,2,3-triazol-2-yl)pyridin-3-yl)-5-fluorobenzamide], the IC50 was no more than 10 nM.

As to `C#Cc1c(F)ncc(N)c1-c1cc(Cl)c(C(=O)Nc2cnc(-n3nccn3)c(Cl)c2)cc1F` [Example A486, 4-(5-amino-3-ethynyl-2-fluoropyridin-4-yl)-2-chloro-N-(5-chloro-6-(2H-1,2,3-triazol-2-yl)pyridin-3-yl)-5-fluorobenzamide], the IC50 is no more than 10 nM.

Turning to `C=C(C)c1cncc(N)c1-c1cc(Cl)c(C(=O)Nc2cnc(-n3nccn3)c(Cl)c2)cc1F` [Example A504, 4-(3-amino-5-(prop-1-en-2-yl)pyridin-4-yl)-2-chloro-N-(5-chloro-6-(2H-1,2,3-triazol-2-yl)pyridin-3-yl)-5-fluorobenzamide], the IC50 was no more than 10 nM.

For `C=Cc1cncc(N)c1-c1cc(Cl)c(C(=O)Nc2cnc(-n3nccn3)c(Cl)c2)cc1F` [Example A507, 4-(3-amino-5-vinylpyridin-4-yl)-2-chloro-N-(5-chloro-6-(2H-1,2,3-triazol-2-yl)pyridin-3-yl)-5-fluorobenzamide], the IC50 is no more than 10 nM.

As for `Nc1cncc(Br)c1-c1cc(Cl)c(C(=O)Nc2cnc(-n3nccn3)c(C(F)(F)F)c2)cc1F` [Example A517, N-(6-(2H-1,2,3-triazol-2-yl)-5-(trifluoromethyl)pyridin-3-yl)-4-(3-amino-5-bromopyridin-4-yl)-2-chloro-5-fluorobenzamide], the IC50 is no more than 10 nM.

Consider `C#Cc1cncc(N)c1-c1cc(Cl)c(C(=O)Nc2ccnc(C(F)(F)F)c2)cc1F` [Example A518, 4-(3-amino-5-ethynylpyridin-4-yl)-2-chloro-5-fluoro-N-(2-(trifluoromethyl)pyridin-4-yl)benzamide], for which the IC50 was no more than 10 nM.

The IC50 is the concentration that gives 50% inhibition. A higher IC50 goes with weaker potency.
